This note sets out measurements from patent US8795739B2, “Iron fortified food product and additive” (Magqu Co. Ltd., priority 2012, dated 2014).

The test system of this data set is Caco-2 cells. The experiment in a line: Iron bioavailability test in the in vitro digestion/Caco-2 cell culture system (ferritin ELISA, Bradford total protein). Format: in vitro ADME, Human. The procedure:
The assay followed the guidance of Department of Health, Executive Yuan, R.O.C. (TAIWAN) and was conducted to analyze the cytotoxicity and the iron bioavailability of Fe3O4 microspheres in the in vitro digestion/Caco-2 cell culture system. The iron bioavailability from the test article could be evaluated by an in vitro system including enzymatic digestion, iron uptake and ferritin determination via an Enzyme-linked immunosorbent assay (ELISA).
• Cell line: Human colon adenocarcinoma, clone of Caco-2. BCRC 80182. • Culture medium: Minimum Essential Medium (MEM) without any additional iron, iron conc.<8 μg/L. • Culture condition: 37±1° C. with 5% C02 incubator. • EBSS/MES buffer: Earle's balanced salt solution (EBSS) ? 10 mM MES (2-[4-morpholino]-ethanesulfonic acid) buffer, pH 6.0. • MEM enrichment medium: hydrocortisone (4 mg/L) ? 10 mM PIPES (piperazine-N,N′-bis-[2-ethanesulfonic acid]) ? 1% antibiotic-antimycotic solution ? insulin (5 mg/L) ? sodium selenite (5 μg/L) ? triiodothyronine ([…]) and epidermal growth factor (2 μg//L). • Iron removal solution: 1 mM bathophenanthroline disulfonic acid (BPDS) and 5 mM sodium hydrosulfite were dissolved in the rinse solution. • Rinse solution: 140 mM NaCl ? 5 mM KCI ? 10 mM PIPES, pH 7.0. Grouping:
The test article were two sizes of Fe3O4 microspheres with an average diameter of 800 nanometer (nm) and 3000 nm, respectively. Both microspheres were placed in a buffer with a pH value ranges from 5-7. Preferably, the buffer was water or Phosphate Buffered Saline (PBS). In this experiment, the buffer was Phosphate Buffered Saline.
• The digestion of the test article: 0.5 mL of test article was dissolved in 1 mL of 1 N HCl solution, and incubated at 37±1° C. for 16 hours. The final iron concentration was 100 μM. Phosphate buffered saline was used as the negative control and treated in the same condition without the test article. • Iron bioavailability test: • i. […] Measured the absorbance at 595 nm with an ELISA reader. • ii. […] Determined by, the human ferritin enzyme immunoassay test kit. • ii. […]

`O=S(=O)([O-])[O-].[Fe+2]` [FeSO4]: the “Tested Ferritin” value (Caco-2 cell lysate, 24 hours treatment, 50 μM FeSO4 (positive control)) is 61.1 ± 1.6 ng/mL. In addition, for the setting “ferritin calibrated by total protein, Caco-2, 24 hours, 50 μM FeSO4 (positive control)”, the “Calibrated Ferritin” value stood at 255.9±15.4 ng/mg protein. For the same compound, the Iron availability (relative to positive control, Caco-2, 24 hours, 50 μM FeSO4) is listed as 100%.
